Measurements published in PMC8463110 (Bioorganic & medicinal chemistry, 2013).

Experiments:
[1] = test system: cocaine-induced convulsions in Swiss Webster mice; assay: Cocaine-induced convulsions; type: in vivo; conditions: 30 mg/kg ip (highest dose tested), 15 min before cocaine 70 mg/kg ip, p < 0.05 Fisher's exact test
human μ opioid receptor = human μ opioid receptor (Homo sapiens, UniProt P35372); assay: Opioid receptor binding, [3H]DAMGO displacement, CHO cell membranes; conditions: 1.3 nM [3H]DAMGO, 120 min 25 °C
[2] = test system: behavioral and neurotoxic effects of cocaine in mice; conditions: cited from earlier work
mice = conditions: ref unpublished finding, R.R. Matsumoto, Morgantown, WV; cited from earlier work

Chain of human μ opioid receptor (P35372 whole entry): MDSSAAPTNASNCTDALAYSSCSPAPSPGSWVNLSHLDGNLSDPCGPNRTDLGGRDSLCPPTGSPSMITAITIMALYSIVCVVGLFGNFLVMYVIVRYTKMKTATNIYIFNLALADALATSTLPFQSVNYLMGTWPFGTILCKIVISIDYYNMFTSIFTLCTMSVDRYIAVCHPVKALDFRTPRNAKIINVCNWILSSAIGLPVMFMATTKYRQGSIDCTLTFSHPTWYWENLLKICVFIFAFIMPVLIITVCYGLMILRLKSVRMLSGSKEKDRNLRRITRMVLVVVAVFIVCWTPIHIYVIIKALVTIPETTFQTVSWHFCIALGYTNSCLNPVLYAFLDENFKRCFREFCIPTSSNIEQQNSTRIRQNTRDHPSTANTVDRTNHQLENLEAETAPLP

Structure (SMILES)	Attenuation of cocaine-induced convulsions [1]	Opioid binding Ki ± SEM, μ (human μ opioid receptor)	Effect on behavioral and neurotoxic effects of cocaine [2]	Therapeutic window / deaths at supratherapeutic doses (mice)
CN(CCc1ccccc1)[C@H]1CCCC[C@@H]1O (relative stereo) [Compound 6, trans-2-(Methyl(phenethyl)amino)cyclohexanol]	significant attenuation of cocaine-induced convulsions	no affinity		
c1ccc(CCN2CCCCC2)cc1 [AC927, N-phenethylpiperidine]			attenuated the behavioral and neurotoxic effects of cocaine in mice	relatively narrow therapeutic window, which can result in deaths in mice at supratherapeutic doses
